Reference: patent US9498483B2, “2,3,5-trisubstituted thiophene compounds and uses thereof” (priority 2010, dated 2016)

Columns and labels:
HCV polymerase = target: T1, HCV polymerase (Hepatitis C virus genotype 1b, UniProt Q9WMX2); experiment: Polymerase assay of Biological Example 1 (IC50 values of Table 3); format: biochemical; details: IC50 values of Table 3, polymerase assay of Biological Example 1; read-out: NS5B-enzyme3
T1 construct: (His)6 (C); made in house; host or cells: XL-1 cells (E. coli, by own knowledge)

[1] = tested on: HCV replicon I389luc-ubi-neo/NS3-3′/ET in ET (Huh-lucubineo-ET) cells; experiment: Replicon assay (Biological Example 2), luciferase readout; format: cell-based; details: Hepatitis C virus; between 100 nM and 5.0 uM
Summary of the method: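 EC50 values come from Hill fits of % inhibition of replicon-driven firefly luciferase, relative to no-compound wells. Compounds were serially diluted (10 points, 3-fold, 0.1 nM–50 μM final, 0.5% DMSO) onto ET replicon cells and read after 48 h.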

Q: With `O=C(O)c1sc(-c2ccccc2)cc1N1C(=O)CN(S(=O)(=O)C2CCCCC2)CC1C1CCCCC1` (centres unmarked) [Compound 46, 3-(4-Cyclohexanesulfonyl-2-cyclohexyl-6-oxo-piperazin-1-yl)-5-phenyl-thiophene-2-carboxylic acid] as the compound, how does the IC50 (HCV polymerase) read?
A: Its IC50 is 63 nM.

Q: And the IC50 [1]?
A: The IC50 was 100 to 5000 nM.
